Assay results: patent US20250101062A1, “ANTIMICROBIAL PEPTIDES” (Board of Regents of the University of Nebraska, priority 2023, published 2025)
Where no end group is shown, it is not given here.

Tests used:
MRSA USA300 = test: Biofilm inhibition; format: cell-based, Staphylococcus aureus; settings: 0.5 to 2×MIC, 24 h
Experimental: Biofilm Inhibition. MRSA USA300 (10^5 CFU/mL) was prepared from the exponential phase. […] Media were then pipetted out, and the wells were washed with 1×PBS to remove planktonic cells. Live cells in biofilms were quantitated by XTT as described above.

A. baumannii B28-16 = format: cell-based, Acinetobacter baumannii; settings: B28-16
Summary of the method: (§1)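 Peptides twofold serially diluted against exponential-phase resistant clinical isolates at ~10^5 CFU/mL in MHB (also diluted MHB, TSB or LB in one protocol), CLSI-based broth microdilution. Incubated overnight at 37° C., OD 600 nm read; MIC taken as lowest concentration without growth, reported as ranges.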

pepsin = target: T1, pepsin (Sus scrofa, UniProt P00791); format: in vitro ADME, mammalian
T1 construct: purchased Thermo Fisher Scientific
T1 sequence (P00791 60-385): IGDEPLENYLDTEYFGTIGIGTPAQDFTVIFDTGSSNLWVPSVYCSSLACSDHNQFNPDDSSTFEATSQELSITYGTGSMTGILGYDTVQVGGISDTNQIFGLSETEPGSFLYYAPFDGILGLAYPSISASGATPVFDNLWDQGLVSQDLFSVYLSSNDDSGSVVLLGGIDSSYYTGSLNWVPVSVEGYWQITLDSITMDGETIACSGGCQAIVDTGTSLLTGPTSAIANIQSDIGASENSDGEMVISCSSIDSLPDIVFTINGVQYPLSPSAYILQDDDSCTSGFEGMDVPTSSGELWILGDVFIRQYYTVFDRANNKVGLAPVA
Experimental: A solution of peptide/protease (40:1 molar ratio) was made in phosphate-buffered saline (PBS; pH 7.1, Gibco, NY) and incubated at 37° C. for 1 hour. As controls, peptides without proteases were also incubated in the same manner. Then, aliquots of 10 μL were transferred to a 96-well polystyrene microplate and mixed with the exponential-phase MRSA USA300 culture as performed in the antibacterial activity assays above.

K. pneumoniae E406-17 = format: cell-based, Klebsiella pneumoniae
Summary of the method: as §1

E. coli E423-17 [1] = test: Membrane depolarization (DiBAC4(3)); format: cell-based, Escherichia coli; settings: Example 1
E. coli E423-17 [2] = test: Membrane permeabilization (propidium iodide); format: cell-based, Escherichia coli; settings: Example 1, 1×MIC
human red blood cells = test: Hemolytic assay; format: cell-based; settings: human, 1 h, 400 μM
Summary of the method: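 Washed human erythrocytes at 2% in isotonic saline incubated 1 h at 37 °C with serially diluted peptides. After centrifugation, released hemoglobin read at 545 nm relative to 1% Triton X-100; HC50 is the peptide concentration giving 50% lysis.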

P. aeruginosa E411-17 = test: Membrane depolarization (DiBAC4(3)); format: cell-based, Pseudomonas aeruginosa; settings: Example 2, PBS with glucose
Experimental: Bacterial membrane depolarization was conducted (Marks, et al. (2013) PLoS One 8(5):e63158). Briefly, an overnight culture of MRSA USA300 or P. aeruginosa E411-17 was inoculated into TSB and grown to exponential phase. Bacteria were washed with 1×PBS, re-suspended in twice the volume of 1×PBS containing 25 mM glucose, and incubated at 37° C. for 15 minutes. Then, 500 nM (final concentration) of the DiBAC4 (3) bis-(1, 3-dibutylbarbituric acid) trimethine oxonol (ANASPEC, CA) was added and vortexed gently. Aliquots of 90 μL of the energized bacteria solution were loaded to the 96 well plates (Corning COSTAR, AZ) and placed in a FLUOstar® Omega microplate reader (BMG LABTECH, NC). Fluorescence was read for 20 minutes at excitation and emission wavelengths of 485 nm and 520 nm, respectively. Then, 10 μL of peptide solutions was added and fluorescence readings were recorded for 40 minutes. Triton® X-100 (0.1%) was used as a positive control.

In the case of RRWWRWWR-NH2 [W543], the “inhibition of biofilm formation” value (MRSA USA300) is reported as “more effective than daptomycin”, the “Activity (MIC) A. baumannii” value (A. baumannii B28-16) is reported as >32 µM and the “activity after protease incubation” value (pepsin) is reported as “retained antibacterial activity”. The “Activity (MIC) K. pneumoniae” value (K. pneumoniae E406-17) was >32 µM, the membrane depolarization (E. coli E423-17 [1]) was “some depolarization” and the membrane permeabilization (E. coli E423-17 [2]) was 30 minute delay in membrane permeabilization.

With `CCCCCCCCCC(=O)N[C@@H](Cc1c[nH]c2ccccc12)C(=O)N[C@H](CC(N)=O)C(=O)N[C@@H](CC(=O)O)C(=O)N[C@@H]1C(=O)NCC(=O)N[C@@H](CCCN)C(=O)N[C@@H](CC(=O)O)C(=O)N[C@H](C)C(=O)N[C@@H](CC(=O)O)C(=O)NCC(=O)N[C@H](CO)C(=O)N[C@@H]([C@H](C)CC(=O)O)C(=O)N[C@@H](CC(=O)c2ccccc2N)C(=O)O[C@@H]1C` [Daptomycin] the hemolysis (human red blood cells) was “did not lyse human red blood cells even at 400 μM”.

For `CC[C@H](C)[C@H](NC(=O)[C@H](CCCCN)NC(=O)[C@H](CCC(=O)O)NC(=O)[C@H](CCCCN)NC(=O)[C@H](CO)NC(=O)[C@H](CCCCN)NC(=O)[C@H](CCCNC(=N)N)NC(=O)[C@H](Cc1ccccc1)NC(=O)[C@H](Cc1ccccc1)NC(=O)[C@H](CC(=O)O)NC(=O)CNC(=O)[C@H](CC(C)C)NC(=O)[C@@H](N)CC(C)C)C(=O)NCC(=O)N[C@@H](CCCCN)C(=O)N[C@@H](CCC(=O)O)C(=O)N[C@@H](Cc1ccccc1)C(=O)N[C@@H](CCCCN)C(=O)N[C@@H](CCCNC(=N)N)C(=O)N[C@H](C(=O)N[C@H](C(=O)N[C@@H](CCC(N)=O)C(=O)N[C@@H](CCCNC(=N)N)C(=O)N[C@H](C(=O)N[C@@H](CCCCN)C(=O)N[C@@H](CC(=O)O)C(=O)N[C@@H](Cc1ccccc1)C(=O)N[C@@H](CC(C)C)C(=O)N[C@@H](CCCNC(=N)N)C(=O)N[C@@H](CC(N)=O)C(=O)N[C@@H](CC(C)C)C(=O)N[C@H](C(=O)N1CCC[C@H]1C(=O)N[C@@H](CCCNC(=N)N)C(=O)N[C@H](C(=O)N[C@@H](CCC(=O)O)C(=O)N[C@@H](CO)C(=O)O)[C@@H](C)O)C(C)C)[C@@H](C)CC)C(C)C)[C@@H](C)CC` [LL-37], the membrane depolarization (P. aeruginosa E411-17) was “most powerful in membrane depolarization”.
